Measured values from PubChem BioAssay AID2060606 (Molecular Pharmacology Branch, DTP, NCI, 2025).

System: 922993-354-T-J3-PDC complex spheroids, viability, % test/control
Test: Anticancer human tumor 922993-354-T-J3-PDC patient-derived endometrial carcinoma cell line growth inhibition [CLK]
Conditions: for IC50: curve of first compound; for viability, T/C: stronger effect = lower value
In short: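 Multi-cell-type spheroids combined patient-derived tumor cells with HUVEC endothelial cells and human mesenchymal stem cells. Paired agents were dosed in half-log steps down from about clinical Cmax, or from 10 microM where Cmax was unknown.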

[1] = second compound 0.0316 µM, first compound 0.0316 µM
[2] = second compound 0.0316 µM, first compound 0.1 µM
[3] = second compound 0.0316 µM, first compound 0.316 µM
[4] = second compound 0.0316 µM, first compound 1 µM
[5] = second compound 0.0316 µM, first compound 3.16 µM
[6] = second compound 0.0316 µM, first compound 10 µM
[7] = second compound 0.1 µM, first compound 0.0316 µM
[8] = second compound 0.1 µM, first compound 0.1 µM
[9] = second compound 0.1 µM, first compound 0.316 µM
[10] = second compound 0.1 µM, first compound 1 µM
[11] = second compound 0.1 µM, first compound 3.16 µM
[12] = second compound 0.1 µM, first compound 10 µM
[13] = second compound 0.316 µM, first compound 0.0316 µM
[14] = second compound 0.316 µM, first compound 0.1 µM
[15] = second compound 0.316 µM, first compound 0.316 µM
[16] = second compound 0.316 µM, first compound 1 µM
[17] = second compound 0.316 µM, first compound 3.16 µM
[18] = second compound 0.316 µM, first compound 10 µM
[19] = second compound 1 µM, first compound 0.0316 µM
[20] = second compound 1 µM, first compound 0.1 µM
[21] = second compound 1 µM, first compound 0.316 µM
[22] = second compound 1 µM, first compound 1 µM
[23] = second compound 1 µM, first compound 3.16 µM
[24] = second compound 1 µM, first compound 10 µM
[25] = second compound 3.16 µM, first compound 0.0316 µM
[26] = second compound 3.16 µM, first compound 0.1 µM
[27] = second compound 3.16 µM, first compound 0.316 µM
[28] = second compound 3.16 µM, first compound 1 µM
[29] = second compound 3.16 µM, first compound 3.16 µM
[30] = second compound 3.16 µM, first compound 10 µM
[31] = second compound 10 µM, first compound 0.0316 µM
[32] = second compound 10 µM, first compound 0.1 µM
[33] = second compound 10 µM, first compound 0.316 µM
[34] = second compound 10 µM, first compound 1 µM
[35] = second compound 10 µM, first compound 3.16 µM
[36] = second compound 10 µM, first compound 10 µM
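Further: spheroids exposed to the agents for 7 days before readout.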

## Nc1ccn(C2OC(CO)C(O)C2(F)F)c(=O)n1 (centres undefined) + CN1CCN(c2cc(C(=O)Nc3cc4cc(-c5cnn(C)c5)ccc4cn3)ccn2)CC1
Second compound 0.0316 µM
  IC50: < 31.6 nM
Second compound 0.1 µM
  IC50: < 31.6 nM
Second compound 0.316 µM
  IC50: < 31.6 nM
Second compound 1 µM
  IC50: < 31.6 nM
Second compound 3.16 µM
  IC50: < 31.6 nM
Second compound 10 µM
  IC50: < 31.6 nM
[1]
  viability, T/C: 20.2%
[2]
  viability, T/C: 13.4%
[3]
  viability, T/C: 16.6%
[4]
  viability, T/C: 15.9%
[5]
  viability, T/C: 16.6%
[6]
  viability, T/C: 17.2%
[7]
  viability, T/C: 23.5%
[8]
  viability, T/C: 16.3%
[9]
  viability, T/C: 15.7%
[10]
  viability, T/C: 17.2%
[11]
  viability, T/C: 16.9%
[12]
  viability, T/C: 18.4%
[13]
  viability, T/C: 14%
[14]
  viability, T/C: 11.3%
[15]
  viability, T/C: 10.3%
[16]
  viability, T/C: 11.6%
[17]
  viability, T/C: 12.5%
[18]
  viability, T/C: 11.5%
[19]
  viability, T/C: 0.1%
[20]
  viability, T/C: 0.12%
[21]
  viability, T/C: 0.13%
[22]
  viability, T/C: 0.06%
[23]
  viability, T/C: 1.89%
[24]
  viability, T/C: 0.07%
[25]
  viability, T/C: 0.11%
[26]
  viability, T/C: 2.53%
[27]
  viability, T/C: 1.37%
[28]
  viability, T/C: 0.13%
[29]
  viability, T/C: 0.85%
[30]
  viability, T/C: 2.45%
[31]
  viability, T/C: 0.16%
[32]
  viability, T/C: 1.71%
[33]
  viability, T/C: 1.82%
[34]
  viability, T/C: 0.17%
[35]
  viability, T/C: 0.67%
[36]
  viability, T/C: 1.33%

## O=c1[nH]cc(F)c(=O)[nH]1 + CN1CCN(c2cc(C(=O)Nc3cc4cc(-c5cnn(C)c5)ccc4cn3)ccn2)CC1
Second compound 0.0316 µM
  IC50: 7950 nM
Second compound 0.1 µM
  IC50: 4390 nM
Second compound 0.316 µM
  IC50: < 31.6 nM
Second compound 1 µM
  IC50: < 31.6 nM
Second compound 3.16 µM
  IC50: < 31.6 nM
Second compound 10 µM
  IC50: < 31.6 nM
[1]
  viability, T/C: 104%
[2]
  viability, T/C: 99.5%
[3]
  viability, T/C: 95.2%
[4]
  viability, T/C: 114%
[5]
  viability, T/C: 65.6%
[6]
  viability, T/C: 46.1%
[7]
  viability, T/C: 102%
[8]
  viability, T/C: 87.2%
[9]
  viability, T/C: 94.1%
[10]
  viability, T/C: 80.5%
[11]
  viability, T/C: 54.2%
[12]
  viability, T/C: 38.9%
[13]
  viability, T/C: 34.3%
[14]
  viability, T/C: 34.3%
[15]
  viability, T/C: 33.3%
[16]
  viability, T/C: 31.3%
[17]
  viability, T/C: 38%
[18]
  viability, T/C: 24.6%
[19]
  viability, T/C: 0.11%
[20]
  viability, T/C: 0.38%
[21]
  viability, T/C: 0.11%
[22]
  viability, T/C: 0.78%
[23]
  viability, T/C: 1.96%
[24]
  viability, T/C: 1.27%
[25]
  viability, T/C: 0.09%
[26]
  viability, T/C: 0.09%
[27]
  viability, T/C: 1.19%
[28]
  viability, T/C: 0.76%
[29]
  viability, T/C: 0.73%
[30]
  viability, T/C: 2.29%
[31]
  viability, T/C: 0.09%
[32]
  viability, T/C: 0.11%
[33]
  viability, T/C: 0.93%
[34]
  viability, T/C: 0.13%
[35]
  viability, T/C: 2.73%
[36]
  viability, T/C: 2.68%
